# Source: patent US8193248B2, “Contraceptive composition” (Starpharma Pty Limited, priority 2006, dated 2012)
# Experiments:
# [1] = system: herpes simplex virus type 2 (HSV-2); details: previous studies, cited from earlier work
# [2] = system: motile sperm (normal semen sample); experiment: modified Sander-Cramer Assay, spermicidal activity; format: cell-based; details: control; 30 seconds at room temperature
# Procedure: This assay determines the sperm-immobilising minimum effective concentration (MEC).
# Serial two-fold dilutions were prepared from stock solutions at 2% (for water soluble compounds) or 4% (for water insoluble compounds). 250 μL of each dilution were mixed with […] of a normal semen sample containing 60×10^6 motile sperm/mL. Normality of the semen samples was assessed with the aid of a CASA system (Hamilton-Thorne, IVOS; Beverly, Mass.). Semen and compound aliquots were microscopically examined while incubating at room temperature for 30 seconds. If any motile spermatozoon were found, either in the initial examination or after one hour incubation in medium, that dilution was labelled as “failed”. The MEC for a given compound was calculated using the highest dilution that induces total sperm immobilization. 6 to 10 semen samples were used to obtain more reliable results. N9 (MEC=˜0.1-0.2 mg/mL) and solvents were run as control.
substance,measurement,setting,value
Nonoxynol-9 [N9],animals infected with HSV-2,[1],29 out of 42
same,relative susceptibility to HSV-2 infection vs control animals,[1]; effective ID of low-dose inoculum in test mice / ID in controls,29.7 times
same,sperm-immobilising minimum effective concentration (MEC),[2],0.1 to 0.2 mg/mL
